Results: US9073879B2, “Oxazole derivatives useful as modulators of FAAH” (MERCK SHARP & DOHME CORP., priority 2010, dated 2015)

Key:
[1] = target: T1, human FAAH (Homo sapiens, UniProt O00519); assay: FAAH cell lysate assay (human lysate, FAAH_CHO, AAMCA substrate); type: biochemical; details: lysate of CHO cells expressing human FAAH; read-out: human lysate_IC50
T1 construct: The full length FAAH was subcloned into the mammalian expression vector, pcDEF.neo, using XbaI and EcoRI restriction sites; expressed in transfected cells
T1 sequence (O00519 1-579): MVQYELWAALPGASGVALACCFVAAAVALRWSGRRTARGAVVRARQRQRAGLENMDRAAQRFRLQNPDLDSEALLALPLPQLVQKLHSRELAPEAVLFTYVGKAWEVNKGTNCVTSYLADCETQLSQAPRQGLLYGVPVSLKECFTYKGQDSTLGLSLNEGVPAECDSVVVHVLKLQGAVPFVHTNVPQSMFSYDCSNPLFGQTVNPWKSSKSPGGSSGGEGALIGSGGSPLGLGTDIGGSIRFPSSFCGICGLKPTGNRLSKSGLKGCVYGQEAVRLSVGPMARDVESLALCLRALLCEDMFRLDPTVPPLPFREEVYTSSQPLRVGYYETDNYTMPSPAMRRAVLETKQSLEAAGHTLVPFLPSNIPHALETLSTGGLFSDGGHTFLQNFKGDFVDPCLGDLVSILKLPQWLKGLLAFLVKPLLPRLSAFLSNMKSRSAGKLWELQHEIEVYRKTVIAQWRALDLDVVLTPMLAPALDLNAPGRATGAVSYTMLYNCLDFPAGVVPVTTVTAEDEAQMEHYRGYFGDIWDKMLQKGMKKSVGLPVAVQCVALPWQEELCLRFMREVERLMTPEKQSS
From the text: (§1) To assist in assay development stable cell lines for human, murine and rat full length FAAH were developed. Human FAAH cDNA (Accession No: NM_001441.1) was purchased from Origene (Rockville, Md.). The full length FAAH was subcloned into the mammalian expression vector, pcDEF.neo, using XbaI and EcoRI restriction sites and used for stable cell line generation.
CHO cells expressing FAAH were used to prepare either crude cell lysate or microsome fractions. To harvest cells, tissue culture media was decanted, the monolayer washed three times with Ca^++Mg^++ free PBS and cells recovered after 15 mm in enzyme free dissociation media (Millipore Corp, Billerica, Mass.). Cells were collected by centrifuging at 2000 rpm for 15 min. and the cell pellet re-suspended with 50 mM HEPES (pH 7.4) containing 1 mM EDTA and the protease inhibitors aprotinin (1 mg/ml) and leupeptin (100 μM). The suspension was sonicated at 4° C. and the cell lysate recovered after centrifuging at 12,000×g (14,600 rpm, SS34 rotor) for 20 min at 4° C. to form a crude pellet of cell debris, nuclei, peroxisomes, lysosomes, and mitochondria; the supernatant or cell lysate was used for FAAH enzyme assay. In some cases, microsomes fractions enriched in FAAH were prepared by centrifuging the cell lysate further at 27,000 rpm (100,000×g) in SW28 rotor for 50 minutes at 4° C. The pellet containing FAAH-enriched microsomes was re-suspend in 50 mM HEPES, (pH 7.4) 1 mM EDTA, and any remaining DNA sheared by passage of material through a 23 gauge needle and aliquots of enzyme were store at −80° C. prior to use.
(American Radiolabeled Chemicals; 1 mCi/ml) with FAAH (Life Sciences (1995), 56, 1999-2005 and Journal of Pharmacology and Experimented Therapeutics (1997), 283, 729-734), Analytical. Biochemistry (2003), 318:270-5. In addition, routine assays were performed monitoring hydrolysis of araehidonyl-7-amino-4-methylcoumarin amide (AAMCA) by following increase in fluorescence upon release of 7-amino 4-methyl coumarin (λEX=355 nm, (λEM=460 nm). Analytical. Biochemistry (2005). 343:143-51
(§2) Assays are performed on either cell lysate or microsome fractions prepared as described or in whole cell format employing either the fluorescent substrate AAMCA (Cayman chemical, Ann Arbor, Mich.) or ^3H-anandamide ([ETHANOLAMINE-1-3H] American Radiolabeled Chemicals; 1 mCi/ml). The cell lysate or microsome assay is performed in black PerkinElmer OptiPlates-384F by adding FAAH_CHO (whole cell (shown as human Whole cell or Human WC), cell lysate (shown as human lysate of human LY) or microsome) in assay buffer (50 mM Phosphate, pH 8.0, 1 mM EDTA, 200 mM KCl, 0.2% glycerol, 0.1% fatty acid free BSA) to each well, followed by either DMSO or compound and allowed to incubate at 22-25° C. for fifteen minutes. AAMCA substrate was used to achieve a final concentration of 1 μM and reaction allowed to proceed at room temperature for 1-3 hours. Fluorescent release as a measure of FAAH activity was monitored by reading the plate in an Envision plate Reader (Ex: 360/40 nM; Em: 460/40 nM). Whole cell assay is conducted with cells harvested after rinsing tissue culture flasks three times with Ca^++Mg^++ free PBS, incubating for 10 min in Enzyme free dissociation media and centrifuging for 5 minutes at 1,000 rpm in table top centrifuge. Cells are resuspended in assay buffer at desired cell number in (4×10^4 cells/assay in 96-well format; 1×10^4 cells/assay in 384-well format) and assayed as described.

[2] = target: T1, human FAAH; assay: FAAH whole cell assay (human Whole cell, FAAH_CHO, AAMCA substrate); type: cell-based; details: CHO cells expressing human FAAH, whole cell format; read-out: human cell_IC50
From the text: as §1
Murine (accession number NM_010173) and Rat FAAH (accession number NM_024132) was amplified by reverse transcriptase polymerase chain reaction (RT-PCR) from brain cDNA (BD Biosciences, San Jose, Calif.) using primers 1 and 2 or primers 1 and 3 respectively (see Table). The resulting PCR product was ligated into pCR4 TOPO and DNA sequence confirmed. The full length murine FAAH was subcloned into the mammalian expression vector, pcDEFneo using either EcoRI (murine) or KpnI and EcoRI (rat) restriction sites. Chinese hamster ovary cells (CHO) were transfected following manufacturers protocol (AMAXA). Forty eight hours post transfection, cells were trypsinized and transferred to 96 well plates in Iscove's DMEM media supplemented with 2 mM Glutamine, 10% fetal calf serum, 1 mg/ml geneticin and HT Supplement (0.1 mM sodium hypoxanthine, 0.016 mM thymidine) in order to isolate single clones. Following selection in geneticin, individual clones were selected and FAAH activity was assessed using a whole cell fluorescent anandamide assay, modified from Ramarao et al (2005). Following removal of tissue culture media cells were dislodged following addition of Cellstripper (Mediatech, Inc. Manassas, Va.) and transferred to 96 well black clear bottom assay plate, centrifuged at 1,000 rpm for 3 mins and media removed and replaced with assay buffer (50 mM Tris pH8.0, 1 mM EDTA, 0.1% fatty acid free BSA). The reaction was initiated by addition of fluorescent substrate, AMC Arachidonoyl Amide (Cayman Chemical, Ann Arbor, Mich.) to 1 μM and reaction allowed to proceed for 2 hours at room temperature. Release of fluorescence was monitored in a CytoFluor Multiplate Reader. Cells expressing the highest amount of FAAH activity were selected for study with FAAH inhibitors.
as §2

CCNC(=O)c1ccc(OCc2nc(-c3ccc(F)cc3)oc2Sc2ccc(Cl)cn2)nc1 [Example B2.16, 6-({5-[(5-chloropyridin-2-yl)sulfanyl]-2-(4-fluorophenyl)-1,3-oxazol-4-yl}methoxy)-N-ethylpyridine-3-carboxamide]
IC50 [1]: 0.004 µM | IC50 [2]: 0.01 µM

COC(=O)c1ccc(NCc2nc(-c3ccc(F)cc3)oc2Sc2ccc(Cl)cn2)cc1 [Example B5.1, methyl 4-[({5-[(5-chloropyridin-2-yl)sulfanyl]-2-(4-fluorophenyl)-1,3-oxazol-4-yl}methyl)amino]benzoate]
IC50 [1]: 0.003 µM | IC50 [2]: 0.018 µM

CCNC(=O)c1ccc(NCc2nc(-c3ccc(F)cc3)oc2Sc2ccc(Cl)cn2)cc1 [Example B5.4, 4-[({5-[(5-chloropyridin-2-yl)sulfanyl]-2-(4-fluorophenyl)-1,3-oxazol-4-yl}methyl)amino]-N-ethylbenzamide]
IC50 [1]: 0.003 µM | IC50 [2]: 0.008 µM

Fc1ccc(-c2nc(CNc3ccc4[nH]ncc4c3)c(Sc3ccc(Cl)cn3)o2)cc1 [Example B5.6, N-({5-[(5-chloropyridin-2-yl)sulfanyl]-2-(4-fluorophenyl)-1,3-oxazol-4-yl}methyl)-1H-indazol-5-amine]
IC50 [1]: 0.022 µM | IC50 [2]: 0.038 µM

CCOC(=O)c1ccc(NCc2nc(-c3ccc(F)cc3)oc2Sc2ccc(Cl)cn2)nc1 [Example B5.7, ethyl 6-[({5-[(5-chloropyridin-2-yl)sulfanyl]-2-(4-fluorophenyl)-1,3-oxazol-4-yl}methyl)amino]pyridine-3-carboxylate]
IC50 [1]: 0.006 µM | IC50 [2]: 0.024 µM

CCNC(=O)c1ccc(NCc2nc(-c3ccc(F)cc3)oc2Sc2ccc(Cl)cn2)nc1 [Example B5.8, 6-[({5-[(5-chloropyridin-2-yl)sulfanyl]-2-(4-fluorophenyl)-1,3-oxazol-4-yl}methyl)amino]-N-ethylpyridine-3-carboxamide]
IC50 [1]: 0.017 µM | IC50 [2]: 0.042 µM

O[C@H]1CC[C@H](NCc2nc(-c3ccc(F)cc3)oc2Sc2ccc(Cl)cn2)CC1 [Example B5.9, trans-4-[({5-[(5-chloropyridin-2-yl)sulfanyl]-2-(4-fluorophenyl)-1,3-oxazol-4-yl}methyl)amino] cyclohexanol]
IC50 [1]: 0.045 µM | IC50 [2]: 0.139 µM

COC(=O)[C@H]1CC[C@H](NCc2nc(-c3ccc(F)cc3)oc2Sc2ccc(Cl)cn2)CC1 [Example B5.10, methyl trans-4-{({5-[(5-chloropyridin-2-yl)sulfanyl]-2-(4-fluorophenyl)-1,3-oxazol-4-yl}methyl)amino] cyclohexanecarboxylate]
IC50 [1]: 0.012 µM | IC50 [2]: 0.031 µM

COC(=O)c1ccc(OC(C)c2nc(-c3ccc(F)cc3)oc2Sc2ccc(Cl)cn2)cc1 (stereo not drawn) [Example B7.1, methyl 4-(1-{5-[(5-chloropyridin-2-yl)sulfanyl]-2-(4-fluorophenyl)-1,3-oxazol-4-yl}ethoxy)benzoate]
IC50 [1]: 0.008 µM | IC50 [2]: 0.039 µM

CNC(=O)c1ccc(OC(C)c2nc(-c3ccc(F)cc3)oc2Sc2ccc(Cl)cn2)cc1 (stereo not drawn) [Example B7.2, 4-(1-{5-[(5-chloropyridin-2-yl)sulfanyl]-2-(4-fluorophenyl)-1,3-oxazol-4-yl}ethoxy)-N-methylbenzamide]
IC50 [1]: 0.021 µM | IC50 [2]: 0.08 µM

COC(=O)c1ccc(OCc2nc(C3CC3)oc2Sc2ccc(Cl)cn2)cc1 [Example D4.1, methyl 4-({5-[(5-chloropyridin-2-yl)sulfanyl]-2-cyclopropyl-1,3-oxazol-4-yl}methoxy)benzoate]
IC50 [1]: 0.187 µM | IC50 [2]: 1.31 µM

Clc1ccc(Sc2oc(C3CC3)nc2COc2ccc3[nH]ncc3c2)nc1 [Example D4.2, 5-({5-[(5-chloropyridin-2-yl)sulfanyl]-2-cyclopropyl-1,3-oxazol-4-yl}methoxy)-1H-indazole]
IC50 [1]: 0.317 µM | IC50 [2]: 0.979 µM
